Entries after “also recorded” stand apart in the source; their conditions may differ. Where two headings read alike, the source gives them in different places.
Assays:
[1] = system: 75-week old female C57BL/6 mice; test: Lifespan (longevity) study of aged mice, 4-day i.p. treatment; assay type: in vivo
Text: (§1) Mice. Mice included in the study were female C57BL/6 and were obtained from the internal divisional stock (derived from C57BL/6j mice obtained from both The Jackson Laboratory and NIA/Charles River as well as from C57BL/6JRj mice from Janvier). For the longevity study described herein, 40 mice were randomly selected at 70 weeks of age. Mice were weighed and bled before the beginning of the treatment (day 0) and at day 7 and 35. […] Mice that needed to be euthanized because they were scored as “weak and about to die” according to our approved animal license protocol for evaluating mouse health status remained part of the dataset. Allocation to control or treated group was done randomly (20 mice each experimental group).
Median lifespan, 95% confidence intervals and survival analysis were calculated by Prism GraphPad v7.0c. Of note, the median lifespan of the control group matched data obtained for C57BL/6j mice in a large set of lifespan studies of diverse inbred mouse strains. […]
To determine that a short-term systemic treatment of aged animals with a Cdc42-specific inhibitor would regulate lifespan, CASIN was administered i.p. every 24 hours for 4 consecutive days to 75-week old female C57BL/6 mice (FIG. 1a). CASIN levels in serum were monitored via liquid chromatography-mass spectrometry (FIGS. 2a and 2b). […]

[2] = system: hepatitis B virus (HBV) core antigen; test: DNA vaccination response with pCI/C DNA encoding HBV core antigen; assay type: in vivo, C57BL/6 mice; settings: aged mice, 13 days after immunization, OLD Solvent vs. OLD CASIN, p<0.05, FIG. 5(B)
Procedure: (§2) Briefly, 75 week-old C57BL/6 mice (referred to in the results as “Old”) and 12-16 week old mice (referred to in the results as “young”) were injected intraperitoneal (“IP”) every 24 hours for four days with a Cdc42-specific inhibitor (e.g., CASIN) at a dosage of interest (e.g., 25 mg/kg) or with solvent as a control group (referred to in the results as “Solvent”). On the fifth day, mice were treated with 5-fluorouracil (“5-FU”). Two methods of vaccination were investigated.
For DNA vaccination: 12 weeks after transplantation, recipient mice were immunized with pCI/C DNA encoding the hepatitis B virus (“HBV”) core antigen. FIG. 5(B) provides the results for DNA vaccination with the HBV core antigen 13 days after immunization along with an ovalbumin (“Ova”) specific immune response. The frequency of interferon gamma positive CD3^+CD8^+ T-cells was analyzed, which is an established surrogate measurement for the success of DNA vaccination protocols. […] In FIG. 5(C), splenic K^b/C93-100-dimer^+ CD8^+ T-cell frequencies were determined by flow cytometry 13 days post-immunization with the HBV core antigen. These T-cell frequencies are a direct measurement of antigen-specific T-cells.

[3] = LC-MS/MS measurement of CASIN pharmacokinetics in mouse serum; assay type: in vivo, C57BL/6 mice; settings: for concentration at 3 h: female, C57BL/6, mouse, serum, intraperitoneal, 25 mg/kg
Procedure: CASIN solution and IP treatment. CASIN was prepared fresh before injection by dissolving the drug directly in beta-cyclodextrin solution (Sigma #H5784). IP injections were performed in the morning, every 24 hours, for 4 consecutive days during week 75 of age of the mice. Control mice were injected with equal volume of the solvent. Serum for the cytokine array was prepared from the day 7 bleeding point. […] The same stock of CASIN was used for the entire study. CASIN was provided as lyophilized powder.
Liquid Chromatography-Mass Spectrometry (LC-MS/MS) measurements of CASIN pharmacokinetics in mouse serum. A LC/MS/MS ion chromatography protocol was employed to measure serum CASIN concentration ranging 0.1-10 μM by comparing serum CASIN from i.p. injected mice at varying times with a standard curve derived by in vitro spiking of mouse serum with defined doses of CASIN. An Autosampler maximum recovery vials with caps (Waters), an UPLC-MS system (Waters Quattro Premier XE mass spectrometry with ACQUITY UPLC system), an Acquity BEH C18 UPLC column (2.1×75 mm, 1.7 μm) (Waters), and an Acquity BEH C18 UPLC guard column (Waters) were used. For LC gradient, solvent A contained acetonitrile/water (5/95) with 2 mM ammonium acetate and solvent B contained acetonitrile/water (90/10). The gradient mobile phase switched from 60% solvent A to 57% solvent A over 2 min, to 50% solvent A at 2.1 min, to 46% solvent A over 9.9 min, and then, after changing to 30% at 12.1 min, to 1% solvent A over 5.9 min, then to 60% solvent A at 18.1 min and this was held for 2 min. Column temperature was kept at 25° C. The capillary voltage was 3 KV for electrospray negative (ES-) mode, cone voltage is 45 V, collision 30 V, desolvation temperature, 350° C.; desolvation gas flow is 600 L/h; source temperature was 120° C.; and MRM transition m/z is 305.1->244.
To determine that a short-term systemic treatment of aged animals with a Cdc42-specific inhibitor would regulate lifespan, CASIN was administered i.p. every 24 hours for 4 consecutive days to 75-week old female C57BL/6 mice (FIG. 1a). CASIN levels in serum were monitored via liquid chromatography-mass spectrometry (FIGS. 2a and 2b). A 50 mg/kg single dose resulted initially in a concentration of about 10 μM in serum (data not shown).

Cdc42 = target: T1, Cdc42 (Mus musculus, UniProt P60766); test: Cdc42-GTPase effector domain pull-down assay in bone marrow cells after systemic in vivo treatment; parameters: species or system C57BL/6 mice; settings: FIG. 1c
T1 construct: lineage depleted BM cells (10^6) were lysed in a Mg^2+ lysis/wash buffer; from tissue; host or cells: lineage-depleted bone marrow cells of C57BL/6 mice treated in vivo with CASIN
T1 sequence (P60766 whole entry, the tested form may be a part): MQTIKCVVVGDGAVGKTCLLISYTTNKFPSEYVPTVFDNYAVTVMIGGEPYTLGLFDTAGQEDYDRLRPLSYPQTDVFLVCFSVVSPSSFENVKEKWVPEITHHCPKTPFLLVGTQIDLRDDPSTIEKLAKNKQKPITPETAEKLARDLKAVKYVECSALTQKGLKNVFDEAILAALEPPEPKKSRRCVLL
Procedure: Cdc42-GTPase effector domain pull-down assays. Relative levels of GTP-bound Cdc42 were determined by an effector pull-down assay. Briefly, lineage depleted BM cells (10^6) were lysed in a Mg^2+ lysis/wash buffer (Upstate cell signaling solutions) containing 10% glycerol, 25 mM sodium fluoride, 1 mM sodium orthovanadate and a protease inhibitor cocktail (Roche Diagnostics). Samples were incubated with PAK-1 binding domain/agarose beads and bound (activated) as well as unbound (non-activated) Cdc42 fractions were probed by immunoblotting with an anti-Cdc42 antibody (Millipore, rabbit polyclonal). Activated protein was normalized to total protein and/or 3-actin (Sigma) and the relative amount was quantified by densitometry.
(§3) Accordingly, chronic toxicity issues from the administration of inhibitor was unlikely. […] Furthermore, CASIN treatment reversed Cdc42 activity in the aged mice cohort to an approximate level of activity seen in the young mice control cohort. Thus, CASIN treatment generally reverted Cdc42 activity levels in aged mice to the level existing in mice approximately 60 weeks younger in age.

[4] = system: inactivated influenza virus (H3N2); test: Viral vaccination response, inactivated influenza virus, antibody titer by ELISA; assay type: in vivo, C57BL/6 mice; settings: aged mice, 21 days after the second vaccination, immunized 12 weeks post CASIN treatment, FIG. 5(D)
Procedure: as §2
For viral vaccination, animals were immunized twice at an interval of 4 weeks with inactivated influenza virus (10 μg H3N2+10 μL Al(OH)3) i.m. 12 weeks post CASIN treatment. The antibody titer was determined in serum 21 days after the second vaccination using ELISA technology. n=at least 3 per experiment.

[5] = system: aging-associated inflammatory cytokines in serum; test: Cytokine array (Luminex) of serum of aged mice; assay type: in vivo, C57BL/6 mice
Procedure: CASIN solution and IP treatment. CASIN was prepared fresh before injection by dissolving the drug directly in beta-cyclodextrin solution (Sigma #H5784). IP injections were performed in the morning, every 24 hours, for 4 consecutive days during week 75 of age of the mice. Control mice were injected with equal volume of the solvent. Serum for the cytokine array was prepared from the day 7 bleeding point. Serum for mass spectrometry analysis of CASIN levels was prepared by bleeding an equal (for sex, strain, origin and age) cohort of mice 3 hours, 24 hours, and 48 hours after the end of the treatment. The same stock of CASIN was used for the entire study. CASIN was provided as lyophilized powder.
Cytokine array. Lumimex Method. Cytokine concentrations in the sample supernatants were determined by using Milliplex™ Multiplex kits (MilliporeSigma, Darmstadt, Germany) according to manufacturer's protocol. Briefly, in a 96 well black plate, 25 μL sample in duplicate was incubated with 25 μL antibody coated beads overnight at 4° C. on a plate shaker. Plates were then washed 2 times using BioTek 405 TS (BioTek, Winooski, Vt.) and 25 μL of secondary antibody was added and incubated at room temperature for 1 hour while shaking. Finally, 25 μL of streptavidin-RPE was added directly to the secondary antibody and incubated for 30 minutes at room temperature with shaking. Plates were then washed 2 more times and 150 μL of sheath fluid was added. Plates were shaken for 5 minutes and then read using luminex technology on the Milliplex Analyzer (MilliporeSigma, Darmstadt, Germany). Concentrations were calculated from standard curves using recombinant proteins and expressed in pg/ml.
(§4) Cytokine array analyses were performed to investigate the extent to which aging-associated inflammatory cytokines in serum of aged mice were affected by CASIN treatment.

[6] = Toxicity, weight and peripheral blood counts in the lifespan study; assay type: in vivo
Text: as §1
Flow cytometry of Peripheral Blood (PB). PB cell immunostaining was performed according to standard procedures and samples were analyzed on a LSRII flow cytometer (BD Biosciences). For PB lineage analysis, the antibodies used were from eBioscience: anti-CD3ε (clone 145-2C11), anti-B220 (clone RA3-6B2), anti-Mac-1 (clone M1/70) and anti-Gr-1 (clone […]). Lineage FACS analysis data were plotted as the percentage of B220+, CD3+ and Myeloid (Gr-1+, Mac-1+ and Gr-1+Mac-1+) cells among total white blood cells. WBC (white blood cell), RBC (red blood cell), Ly (lymphocytes), NE (neutrophils), and Mo (monocyte) counts were generated by using the hemocytometer Hemavet 950, DREW SCIENTIFIC Inc, (FL 33014), USA.
as §3, §4

OCCNC1CCCc2c1[nH]c1ccc(-c3ccccc3)cc21 (stereo not shown) [CASIN]
Median survival ([1]; aged mice treated at week 75, 25 mg/kg i.p. 4 consecutive days, n=17, control 123.5 weeks): 136 weeks
average and maximum lifespan ([1]; aged mice treated for 4 consecutive days, FIG. 1d): extension of both their average and maximum lifespan
frequency of interferon gamma positive CD3+CD8+ T-cells [2]: statistically significant increase in immune response
CASIN remaining in serum at the end of the 48 hour window ([3]; 25 mg/kg i.p. for 4 consecutive days, 48 hours): approximately no CASIN remaining in serum
CASIN concentration in serum ([3]; 50 mg/kg single dose, initially (data not shown)): about 10 μM
concentration at 3 h ([3]; 25 mg/kg i.p. for 4 consecutive days, 48 hour window of analysis, 3 hours, read-out: concentration of CASIN in serum after 3 hours): ~2 µM
concentration at 3 h ([3]; 25 mg/kg i.p., old mice, 3 hours after injection, FIG. 2b, read-out: levels of CASIN in serum 3 hours after injection): ~5 µM
Cdc42-GTP in aged bone marrow cells (Cdc42; 24 hours after the last injection, aged mice): reduction of Cdc42-GTP in aged bone marrow cells to the level seen in young
decrease of Cdc42 activity (Cdc42; with no regard to the age of mouse): approximately half
antibody titer in serum [4]: increase in antibody titer; also recorded: approximately equal to that seen in young mice
GM-CSF concentration in serum ([5]; day 7, FIG. 3): trend to be reduced
IL-2 concentration in serum ([5]; day 7, FIG. 3): trend to be reduced
IL-9 serum concentration ([5]; day 7, FIG. 1h): increased in serum concentration
red blood cell count (RBC) ([6]; day 7 and day 35, FIG. 2e): did not change
white blood cell count (WBC) ([6]; day 7 and day 35, FIG. 2d): did not change
frequency and count of myeloid and lymphoid cells in peripheral blood (PB) ([6]; day 7 and day 35, FIGS. 2f-k): did not change
weight ([6]; day 7 and day 35 after beginning of treatment, FIG. 2c): did not change
acute toxicity ([6]; four days of consecutive i.p. injections, 25 mg/kg, aged mice): did not induce acute toxicity
deaths of treated mice after CASIN injections ([6]; within 4 weeks after injections): none of the treated mice died

From patent US20220288197A1, “METHODS OF TREATING A SUBJECT WITH A CDC42-SPECIFIC INHIBITOR” (Children’s Hospital Medicai Center, priority 2019, published 2022)
